# Laboratory results as given in the Bradley open melting point set (2014).
# Where “and” joins values, the source holds several entries; their conditions need not be identical. Equal entries are not always repeated. Structures can show the parent of a compound that is named as a salt.
row,Compound,melting point
1,Fc1c(F)c(F)c(-c2c(F)c(F)c(F)c(F)c2F)c(F)c1F [decafluorobiphenyl],68 °C
2,C[Si]1(C)O[Si](C)(C)O[Si](C)(C)O[Si](C)(C)O[Si](C)(C)O1 [decamethylcyclopentasiloxane],-44 °C
3,CCCCCCCCCC [decane],-30 °C and -29.8 °C
4,CCCCCCCCCC#N [decanonitrile],-15 °C
5,COc1ccc2c(c1)[C@@]13CCCC[C@@H]1[C@@H](C2)N(C)CC3 [dextromorphan],110 °C
6,CCCCCCCCCCNCCCCCCCCCC [di-n-decylamine],37 °C
7,CCCCCCCCNCCCCCCCC [di-n-octylamine],14 °C
8,CCCNCCC [di-n-propylamine],-63 °C
9,CC(C)(C)OC(=O)/N=N/C(=O)OC(C)(C)C [di-tert-butyl azodicarboxylate],91 °C
10,ClCCl [dichloromethane],-95 °C
11,CC(Oc1ccc(Cl)cc1Cl)C(=O)O (stereo not drawn) [dichlorprop],118 °C
12,C1CCC2OCCOCCOC3CCCCC3OCCOCCOC2C1 (stereo not drawn) [dicyclohexano-18-crown-6],50 °C
13,C1CCC(NC2CCCCC2)CC1 [dicyclohexylamine],-2 °C
14,c1ccc(P(C2CCCCC2)C2CCCCC2)cc1 [dicyclohexylphenylphosphine],60 °C
15,OCCNCCO [diethanolamine],29 °C
16,CCOC(=O)C#CC(=O)OCC [diethyl acetylenedicarboxylate],2 °C
17,CCOC(=O)c1ccccc1C(=O)OCC [diethyl_phthalate],-3 °C
18,CCOC(=O)CCC(=O)OCC [diethyl_succinate],-20 °C
19,ICI [diiodomethane],6 °C
20,CC(C)C(=O)C(C)C [diisopropyl ketone],-69 °C
21,CC(C)NC(C)C [diisopropylamine],-61 °C
22,COCOC [dimethoxymethane],-105 °C
23,COC(=O)CCCCC(=O)OC [dimethyl adipate],8 °C
24,CSSC [dimethyl disulfide],-85 °C

row,Compound,melting point
1,COC(=O)/C=C/C(=O)OC [dimethyl fumarate],104 °C
2,COC(=O)c1ccccc1C(=O)OC [dimethyl phthalate],5 °C
3,CS(C)=O [dimethyl sulfoxide],18 °C
4,COC(=O)/C=C/C(=O)OC [dimethyl_fumarate],104 °C
5,CS(C)=O [dimethyl_sulfoxide],18 °C
6,Cc1ncc([N+](=O)[O-])n1C [dimetridazole],140 °C
7,CCN(CC)C(=S)SSC(=S)N(CC)CC [disulfiram],70 °C
8,CCCCCCCCCCCC [dodecane],-10 °C
9,CCCCCCCC/C=C/CCCCCCCC(=O)O [elaidic acid],43 °C
10,CN[C@@H](C)[C@H](O)c1ccccc1 [ephedrine],34 °C
11,CCCCCCCC/C=CCCCCCCCCCCCC(=O)O [erucic acid],31 °C
12,CCS [ethanethiol],-148 °C
13,CCOC=C(C#N)C(=O)OCC [ethyl (ethoxymethylene)cyanoacetate],50 °C
14,CCOC(=O)c1ccccc1N [ethyl anthranilate],15 °C
15,CCOC(N)=O [ethyl carbamate],49 °C
16,CCOC(=O)CCl [ethyl chloroacetate],-26 °C
17,CCOC=O [ethyl formate],-81 °C
18,CCCCCCC(=O)OCC [ethyl heptanoate],-66 °C
19,CCN=C=S [ethyl isothiocyanate],-6 °C
20,CCSC [ethyl methyl sulfide],-106 °C
21,CCCCCCCCC(=O)OCC [ethyl nonanoate],-44 °C
22,CCCCCCCC(=O)OCC [ethyl octanoate],-47 °C
23,CCOC(=O)Cc1ccccc1 [ethyl phenylacetate],-29 °C
24,CCC#N [ethyl_cyanide],-93 °C

# The remaining lines, values ahead:
row,melting point,Compound
1,31 °C,CCCCCCCCCC(=O)O [decanoic acid]
2,111 °C,CC(=O)C1C(=O)C=C(C)OC1=O (stereo not drawn) [dehydroacetic acid]
3,142 °C,O=C4\C=C2/[C@]([C@H]1CC[C@@]3([C@@H](C(=O)CO)CC[C@H]3[C@@H]1CC2)C)(C)CC4 [deoxycorticosterone]
4,233 °C,COc1ccc(Cc2cnc(N)nc2N)cc1OC [diaveridine]
5,270 °C,"c1ccc2c(c1)ccc1cc3c(ccc4ccccc43)cc12 [dibenz[a,h]anthracene]"
6,116 °C,CN(C)CCN1C(=O)c2ccccc2N(C)c2ccccc21 [dibenzepin]
7,266 °C,"c1ccc2c(c1)ccc1cc3c(ccc4ccccc43)cc12 [dibenzo[a,h]anthracene]"
8,45 °C,O=C(/N=N/C(=O)OCc1ccccc1)OCc1ccccc1 [dibenzyl azodicarboxylate]
9,4 °C,c1ccc(COCc2ccccc2)cc1 [dibenzyl ether]
10,64.5 °C,CCCCOc1cc(C(=O)NCCN(CC)CC)c2ccccc2n1 [dibucaine]
11,157 °C,O=C(O)Cc1ccccc1Nc1c(Cl)cccc1Cl [diclofenac]
12,81 °C,"CCOC(=O)c1cc(C)nn1C(=O)OCC [diethyl 3-methyl-1H-pyrazole-1,5-dicarboxylate]"
13,124 °C,"CCOC(=O)c1cc(C(=O)OCC)c([N+](=O)[O-])cc1[N+](=O)[O-] [diethyl 4,6-dinitrobenzene-1,3-dicarboxylate]"
14,99 °C,"CCOC(=O)C1=C(C(=O)OCC)C(C)N=N1 (stereo not drawn) [diethyl 5-methyl-1H-pyrazole-3,4-dicarboxylate]"
15,100 °C,CCOC(=O)C(=Nn1nnc2ccccc21)C(=O)OCC [diethyl (1h-benzotriazol-1-yl)iminomalonate]
16,54 °C,"CCOC(=O)/C=C/c1cccc(/C=C/C(=O)OCC)c1 [diethyl (2E,2'E)-3,3'-benzene-1,3-diylbisprop-2-enoate]"
17,63 °C,CCOC(=O)C(NC(=O)c1ccccc1)C(=O)OCC [diethyl benzamidomalonate]
18,53 °C,CCOC(=O)C(NC=O)C(=O)OCC [diethyl formamidomalonate]
19,45 °C,CCOC(=O)c1ccc(C(=O)OCC)cc1 [diethyl terephthalate]
20,122 °C,O=C(Cc1ccc(-c2ccccc2)cc1)Nc1ccccn1 [difenpiramide]
21,210 °C,O=C(O)c1cc(-c2ccc(F)cc2F)ccc1O [diflunisal]
22,113 °C,"COC(=O)c1ccc(/C=C\c2ccc(C(=O)OC)cc2)cc1 [dimethyl cis-stilbene-4,4'-dicarboxylate]"
23,69 °C,COC(=O)c1cccc(C(=O)OC)c1 [dimethyl isophthalate]
24,52 °C,COC(=O)C(=O)OC [dimethyl oxalate]
25,79 °C,O=C(Oc1ccccc1)Oc1ccccc1 [diphenyl carbonate]
26,28 °C,c1ccc(Oc2ccccc2)cc1 [diphenyl ether]
27,147 °C,O=C(O)C(c1ccccc1)c1ccccc1 [diphenylacetic acid]
28,60 °C,C(#Cc1ccccc1)c1ccccc1 [diphenylacetylene]

row,melting point,Compound
1,52 °C and 53.5 °C and 54 °C,c1ccc(Nc2ccccc2)cc1 [diphenylamine]
2,25 °C,c1ccc(Cc2ccccc2)cc1 [diphenylmethane]
3,44 °C,CCCCCCCCCCCC(=O)O [dodecanoic acid]
4,144 °C,Cn1c(=O)c2c(ncn2CC2OCCO2)n(C)c1=O [doxofylline]
5,-144 °C,CCCCCCCCCCCCS[C@H](C(=O)Nc1cc(C)c(O)c(C)c1C)c1ccccc1 [eflucimibe]
6,168 °C,"O=C1[C@@H]2[C@H](C(=O)N1O)[C@@H]1C=C[C@H]2C1 [endo-n-hydroxy-5-norbornene-2,3-dicarboximide]"
7,156 °C,O=C(O)CSCC(=O)NC1CCSC1=O (stereo not drawn) [erdosteine]
8,191 °C,CC[C@H]1OC(=O)[C@H](C)[C@@H](O[C@H]2C[C@@](C)(OC)[C@@H](O)[C@H](C)O2)[C@H](C)[C@@H](O[C@@H]2O[C@H](C)C[C@H](N(C)C)[C@H]2O)[C@](C)(O)C[C@@H](C)C(=O)[C@H](C)[C@@H](O)[C@]1(C)O [erythromycin]
9,176 °C and 178 °C,C[C@]12CC[C@@H]3c4ccc(O)cc4CC[C@H]3[C@@H]1CC[C@@H]2O [estradiol] [listing 1 of 2 here]
10,176 °C,C[C@]12CC[C@@H]3c4ccc(O)cc4CC[C@H]3[C@@H]1CC[C@@H]2O [estradiol] [listing 2 of 2 here]
11,84 °C,"CCOC(=O)c1csnn1 [ethyl 1,2,3-thiadiazole-4-carboxylate]"
12,98 °C,CCOC(=O)c1cnn(-c2ccccc2)c1 [ethyl 1-phenyl-1h-pyrazole-4-carboxylate]
13,212 °C,"CCOC(=O)c1c(O)cc(C)nc1O [ethyl 2,4-dihydroxy-6-methylnicotinate]"
14,55 °C,CCOC(=O)c1csc(C)n1 [ethyl 2-methylthiazole-4-carboxylate]
15,144 °C,CCOC(=O)c1c[nH]nc1C(F)(F)F [ethyl 3-trifluoromethyl-1h-pyrazole-4-carboxylate]
16,31 °C,CCOC(=O)c1ccc(CBr)cc1 [ethyl 4-(bromomethyl)benzoate]
17,117 °C,CCOC(=O)c1ccc(O)cc1 [ethyl 4-hydroxybenzoate] [listing 1 of 2 here]
18,117 °C,CCOC(=O)c1ccc(O)cc1 [ethyl 4-hydroxybenzoate] [listing 2 of 2 here]
19,100 °C,CCOC(=O)c1cnn(C)c1N [ethyl 5-amino-1-methyl-1h-pyrazole-4-carboxylate]
20,101 °C,CCOC(=O)c1ccc([N+](=O)[O-])o1 [ethyl 5-nitro-2-furoate]
21,7 °C,CCOC(=O)/C=C/c1ccccc1 [ethyl cinnamate]
22,9 °C,CCOC(=O)c1cccnc1 [ethyl nicotinate]
23,67 °C,CCOC(=O)C(=O)Nc1ccccc1 [ethyl oxanilate]
24,116 °C,CCOC(=O)c1ccc(O)cc1 [ethyl p-hydroxybenzoate]
25,-58 °C,CCOC(=O)C(C)=O [ethyl pyruvate]
26,89 °C,CCOC(=O)c1ccc(N)cc1 [ethyl-4-aminobenzoate (benzocaine)]
27,89 °C,CCOC(=O)c1ccc(N)cc1 [ethyl_4-aminobenzoate]
